What was measured:
[1] = tested on: HIV-1LAI; test: HIV-1LAI replication reverse transcriptase assay in primary PBM cells; format: cell-based, human immunodeficiency virus type 1
Method: The cytotoxicity and human immunodeficiency virus type 1 (HIV-1) strain LAI replication assays were performed in freshly explanted primary human peripheral blood mononuclear cells (PBM cells) according to published procedures. The assays were conducted at least in triplicate and treated statistically (if possible). HIV-1LAI (= HIV-1BRU = LAV-1) was assayed in primary human peripheral blood lymphocyte (PBL) cells in the presence of a drug being evaluated. The parameter for antiviral activity was a reduction in reverse transcriptase (RT) activity in the cell supernatant after Triton X–100-mediated lysis of released virions, as measured using [5α-^3H]dTTP (5α-tritiated thymidine 5′-triphosphate) incorporation into poly(rA)•poly(dT) directed by the primed RNA template poly(rA)•oligo(dT). […] The detailed assay methodology was reported by Schinazi et al. as based on an older assay system of Spira et al.. The experiments were conducted in triplicate and treated statistically using regression curve analysis (r^2 coefficient of determination). The RT inhibitor AZT (zidovudine, 3′-azido-3′-deoxythymidine; RETROVIR™) served as a positive control. Cytotoxicity on PBL and the other cells (CCRF−CEM, Vero) exerted by the test compounds was determined as described by Stuyver et al. by application of the CellTiter 96® AQueous One Solution Cell Proliferation Assay (Promega Corp., Madison, WI, USA). Briefly, the phenazine ethosulfate (PES)-coupled reduction of the tetrazolium salt 3-(4,5-dimethylthiazol-2-yl)-5-(3-carboxymethoxyphenyl)-2-(4-sulfophenyl)-2H-tetrazolium (MTS) to a purple, water-soluble formazan by living, undamaged cells was measured.

[2] = tested on: HL-60 (TB)

c1cc(CNC23CC4CC(CC(C4)C2)C3)cc(C[N+](Cc2cccc(CNC34CC5CC(CC(C5)C3)C4)c2)(Cc2cccc(CNC34CC5CC(CC(C5)C3)C4)c2)Cc2cccc(CNC34CC5CC(CC(C5)C3)C4)c2)c1 (centres unmarked) [Compound 1, tetrakis{3-[(tricyclo[3.3.1.1^3,7]decan-1-ammonio)methyl]benzyl}ammonium pentachloride]
EC50 ([1]; Human immunodeficiency virus 1, PBMC, primary human PBM cells, reverse transcriptase activity in supernatant, read-out: Anti-HIV-1LAI activity EC50): 560 nM
EC90 ([1]; Human immunodeficiency virus 1, PBMC, primary human PBM cells, reverse transcriptase activity in supernatant, read-out: Anti-HIV-1LAI activity EC90): 4300 nM
SI50, selectivity index CC50/EC50 ([1]; PBM cells): 3.9
TGI ([2]; HL-60 (TB), leukemia, mutant p53, 48 h): 2710 nM
GI50 ([2]; Homo sapiens, HL-60, 48 h): 870 nM
